Test results taken from ChEMBL document CHEMBL4828726, “Modification of 5-methylphenanthridium from benzothiazoles to indoles as potent FtsZ inhibitors: Broadening the antibacterial spectrum toward vancomycin-resistant enterococci” (Eur J Med Chem, 2021).
Values after ≈ are worked out from the molar mass of the structure shown.

How the values were obtained:
Type in all cases: functional
Bacillus subtilis [1] = experiment: Antibacterial activity against penicillin-susceptible Bacillus subtilis ATCC 9372 assessed as inhibition of bacterial growth measured after 20 hrs by two-fold microdilution assay
Staphylococcus aureus [2] = experiment: Antibacterial activity against clinical isolate Staphylococcus aureus C1 assessed as inhibition of bacterial growth measured after 20 hrs by two-fold microdilution assay
Streptococcus pyogenes [3] = experiment: Antibacterial activity against erythromycin-resistant Streptococcus pyogenes assessed as inhibition of bacterial growth measured after 20 hrs by two-fold microdilution assay
Escherichia coli = experiment: Antibacterial activity against penicillin-susceptible Escherichia coli ATCC 25922 assessed as inhibition of bacterial growth measured after 20 hrs by two-fold microdilution assay
Staphylococcus aureus [4] = experiment: Antibacterial activity against penicillin-resistant Staphylococcus aureus ATCC 31007 assessed as inhibition of bacterial growth measured after 20 hrs by two-fold microdilution assay
Enterococcus faecium [5] = experiment: Antibacterial activity against Vancomycin-resistant Enterococcus faecium ATCC 51559 assessed as inhibition of bacterial growth measured after 20 hrs by two-fold microdilution assay
Enterococcus faecium [6] = experiment: Antibacterial activity against Vancomycin-susceptible Enterococcus faecium ATCC 19434 assessed as inhibition of bacterial growth measured after 20 hrs by two-fold microdilution assay
Streptococcus pyogenes [7] = experiment: Antibacterial activity against erythromycin-susceptible Streptococcus pyogenes assessed as inhibition of bacterial growth measured after 20 hrs by two-fold microdilution assay
[8] = tested on: Staphylococcus epidermidis; experiment: Antibacterial activity against penicillin-resistant Staphylococcus epidermidis assessed as inhibition of bacterial growth measured after 20 hrs by two-fold microdilution assay
Bacillus pumilus = experiment: Antibacterial activity against penicillin-susceptible Bacillus pumilus CMCC63202 assessed as inhibition of bacterial growth measured after 20 hrs by two-fold microdilution assay
Staphylococcus aureus [9] = experiment: Antibacterial activity against erythromycin-susceptible Staphylococcus aureus ATCC 25923 assessed as inhibition of bacterial growth measured after 20 hrs by two-fold microdilution assay
Enterococcus faecalis [10] = experiment: Antibacterial activity against Vancomycin-resistant Enterococcus faecalis ATCC 51299 assessed as inhibition of bacterial growth measured after 20 hrs by two-fold microdilution assay
Enterococcus faecalis [11] = experiment: Antibacterial activity against Vancomycin-susceptible Enterococcus faecalis ATCC 29212 assessed as inhibition of bacterial growth measured after 20 hrs by two-fold microdilution assay
Staphylococcus aureus [12] = experiment: Antibacterial activity against methicillin-resistant Staphylococcus aureus ATCC43300 assessed as inhibition of bacterial growth measured after 20 hrs by two-fold microdilution assay
Pseudomonas aeruginosa = experiment: Antibacterial activity against penicillin-susceptible Pseudomonas aeruginosa ATCC 27853 assessed as inhibition of bacterial growth measured after 20 hrs by two-fold microdilution assay
Bacillus subtilis [13] = experiment: Bactericidal activity against penicillin-susceptible Bacillus subtilis ATCC 9372 assessed as inhibition of bacterial growth measured after 20 hrs by two-fold microdilution assay
Staphylococcus aureus [14] = experiment: Bactericidal activity against erythromycin-susceptible Staphylococcus aureus ATCC 25923 assessed as inhibition of bacterial growth measured after 20 hrs by two-fold microdilution assay

| Structure (SMILES) | MIC (Bacillus subtilis [1]) [µg/mL] | MIC (Staphylococcus aureus [2]) [µg/mL] | MIC (Streptococcus pyogenes [3]) [µg/mL] | MIC (Escherichia coli) [µg/mL] | MIC (Staphylococcus aureus [4]) [µg/mL] | MIC (Enterococcus faecium [5]) [µg/mL] | MIC (Enterococcus faecium [6]) [µg/mL] | MIC (Streptococcus pyogenes [7]) [µg/mL] | MIC [8] [µg/mL] | MIC (Bacillus pumilus) [µg/mL] | MIC (Staphylococcus aureus [9]) [µg/mL] | MIC (Enterococcus faecalis [10]) [µg/mL] | MIC (Enterococcus faecalis [11]) [µg/mL] | MIC (Staphylococcus aureus [12]) [µg/mL] | MIC (Pseudomonas aeruginosa) [µg/mL] | MBC (Bacillus subtilis [13]) [µg/mL] | MBC (Staphylococcus aureus [14]) [µg/mL] |
| --- | --- | --- | --- | --- | --- | --- | --- | --- | --- | --- | --- | --- | --- | --- | --- | --- | --- |
| Cc1cccc2c[n+](C)c3ccc(-c4ccc5ccn(Cc6ccc(OC(F)(F)F)cc6)c5c4)cc3c12.[Cl-] | 8 | 8 | 16 | > 64 | 8 | 4 | 4 | 16 | 8 | 32 | 2 | 8 | 8 | 16 |  |  |  |
| Cc1ccc2c[n+](C)c3ccc(-c4nc5ccccc5s4)cc3c2c1.[Cl-] | 1 | > 64 | 4 | > 64 | > 64 |  |  | 4 | > 64 | 4 | 16 |  |  | > 64 | > 64 |  |  |
| Cc1ccc2c[n+](C)c3ccc(-c4ccc5ccn(CC(C)C)c5c4)cc3c2c1.[Cl-] | 4 | 4 | 8 | > 64 | 8 |  |  | 4 | 16 | 4 | 2 |  |  | 4 | > 64 |  |  |
| Cc1cccc2c1c[n+](C)c1ccc(-c3nc4ccccc4s3)cc21.[Cl-] | > 64 | > 64 | 64 | > 64 | > 64 |  |  | 32 | > 64 | > 64 | 16 |  |  | > 64 | > 64 |  |  |
| C[n+]1cc2ccccc2c2cc(-c3nc4ccccc4s3)ccc21.[Cl-] | > 64 | > 64 |  | > 64 | > 64 |  |  | > 64 | > 64 | > 64 | > 64 |  |  | > 64 | > 64 |  |  |
| Cc1ccc2c(c1)c[n+](C)c1ccc(-c3nc4ccccc4s3)cc21.[Cl-] | 4 | > 64 | 16 | > 64 | > 64 |  |  | 16 | > 64 | 32 | 32 |  |  | > 64 | > 64 |  |  |
| CCCn1ccc2ccc(-c3ccc4c(c3)c3cc(C)ccc3c[n+]4C)cc21.[Cl-] | 64 | 32 | 32 | > 64 | > 64 |  |  | > 64 | > 64 | > 64 | 16 |  |  | 64 | > 64 |  |  |
| Cc1cccc2c[n+](C)c3ccc(-c4nc5ccccc5s4)cc3c12.[Cl-] | 4 | 4 | 4 | > 64 | 4 | 16 | 8 | 4 | 4 | 4 | 2 | 16 | 1 | 4 | > 64 | > 64 | > 64 |
| Cc1cccc2c[n+](C)c3ccc(-c4ccc5ccn(Cc6ccc(C(F)(F)F)cc6)c5c4)cc3c12.[Cl-] | 2 | 8 | 16 | > 64 | 8 | 8 | 8 | 16 | 4 | 4 | 2 | 8 | 16 | 8 | > 64 |  |  |
| CCCCCn1ccc2ccc(-c3ccc4c(c3)c3c(C)cccc3c[n+]4C)cc21.[Cl-] | 2 | 2 | 16 | > 64 | 4 |  |  | 16 | 8 | 4 | 2 |  |  | 2 | > 64 |  |  |
| COc1ccc2cc3[n+](cc2c1OC)CCc1cc2c(cc1-3)OCO2 [BERBERINE] | > 64 | > 64 | 64 | > 64 | > 64 | > 64 | > 64 | 64 | > 64 | > 64 | 64 | > 64 | > 64 | > 64 | > 64 |  |  |
| CCCCCn1ccc2ccc(-c3ccc4c(c3)c3cc(C)ccc3c[n+]4C)cc21.[Cl-] | 4 | 4 | 16 | > 64 | 8 |  |  | 8 | 8 | 8 | 2 |  |  | 4 | > 64 |  |  |
| Cc1cccc2c[n+](C)c3ccc(-c4ccc5ccn(C)c5c4)cc3c12.[Cl-] | 1 | 8 | 4 | > 64 | 32 |  |  | 8 | 16 | 8 | 2 |  |  | 8 | > 64 |  |  |
| CCCCn1ccc2ccc(-c3ccc4c(c3)c3cc(C)ccc3c[n+]4C)cc21.[Cl-] | 4 | 4 | 16 | > 64 | 8 | 8 | 8 | 8 | 16 | 8 | 2 | 16 | 8 | 8 | > 64 |  |  |
| Cc1ccc2c[n+](C)c3ccc(-c4ccc5ccn(C)c5c4)cc3c2c1.[Cl-] | 2 | 8 | 4 | > 64 | > 64 |  |  | 4 | > 64 | 16 | 4 |  |  | 32 | > 64 |  |  |
| Cc1cccc2c[n+](C)c3ccc(-c4ccc5ccn(CC(C)C)c5c4)cc3c12.[Cl-] | 4 | 4 | 16 | > 64 | 8 |  |  | 8 | 8 | 8 | 2 |  |  | 4 | > 64 |  |  |
| COc1ccc2c(c1)c[n+](C)c1ccc(-c3nc4ccccc4s3)cc21.[Cl-] | > 64 | > 64 |  | > 64 | > 64 |  |  | > 64 | > 64 | > 64 | > 64 |  |  | > 64 | > 64 |  |  |
| CN[C@H](CC(C)C)C(=O)N[C@H]1C(=O)N[C@@H](CC(N)=O)C(=O)N[C@H]2C(=O)N[C@H]3C(=O)N[C@H](C(=O)N[C@H](C(=O)O)c4cc(O)cc(O)c4-c4cc3ccc4O)[C@H](O)c3ccc(c(Cl)c3)Oc3cc2cc(c3O[C@@H]2O[C@H](CO)[C@@H](O)[C@H](O)[C@H]2O[C@H]2C[C@](C)(N)[C@H](O)[C@H](C)O2)Oc2ccc(cc2Cl)[C@H]1O [VANCOMYCIN] |  |  |  |  |  | > 64 |  |  |  |  |  | > 64 | 2 (≈ 1.38 µM) |  |  |  |  |
| CCn1ccc2ccc(-c3ccc4c(c3)c3c(C)cccc3c[n+]4C)cc21.[Cl-] | 4 | 8 | 8 | > 64 | 32 |  |  | 8 | 16 | 16 | 2 |  |  | 8 | > 64 |  |  |
| COc1ccc2c[n+](C)c3ccc(-c4nc5ccccc5s4)cc3c2c1.[Cl-] | > 64 | > 64 |  | > 64 | > 64 |  |  | > 64 | > 64 | > 64 | > 64 |  |  | > 64 | > 64 |  |  |
| O=C(O)c1cn(C2CC2)c2cc(N3CCNCC3)c(F)cc2c1=O [CIPROFLOXACIN] | 4 (≈ 12.1 µM) |  |  |  | > 64 | > 64 | > 64 |  | > 64 |  | 4 (≈ 12.1 µM) | > 64 | 32 (≈ 96.6 µM) |  |  |  |  |
